Assay [1] relates to Human CMV (Tanaka strain). The experiment in a line: Inhibitory activity against human CMV infection and proliferation in HELF cells (fluorescence staining). The format is cell-based, Human cytomegalo virus. Conditions: 24 hrs., concentration not given. As for the experimental part: (Method) LF derived peptide was dissolved in 2% serum added MEM medium to give five mg/ml solution, filtered and sterilized to make a stock solution. The stock solution was diluted with 2% serum added MEM medium on use. Samples containing human embryo lung fibroblast cells (HELF cells) were suspended in 2% serum added MEM medium and incubated for 10 minutes. The cells were collected by centrifugation, washed twice with 2% serum added MEM medium and suspended in 2% serum added MEM medium. Human cytomegalo virus [Human CMV (Tanaka strain)] was added, incubated for 24 hrs., fluorescence stained with human CMV positive serum and the adsorption rate of human CMV to the cells was determined.
The results are judged from the numbers of fluorescent stained cells per one cover slip.

The subject of assay [2] is influenza virus A/PR/8/34. Particulars: 100 μl of one mg/ml solution in allantoic cavity three hours before virus; average of five eggs.
Assay [3] has as its system HIV (HTLV-IIIB). In words: Inhibitory activity against HIV infection and proliferation in MT-4 cells (indirect fluorescence antibody method). The format is cell-based, human immunodeficiency virus (HIV). Particulars: three days, positive control 26.0%. As for the experimental part:
(Method) Cultured supernatant of MOLT-4/HTLV-IIIB cells, a HTLV-IIIB persistent infected strain of HIV, was used as a viral solution. The supernatant was kept at -80° C. Human T cell line MT-4 was used for the test. MT-4 was subcultured in RPMI 1640 medium containing 10% fetal calf serum (FCS). Sample, LF derived peptide, was dissolved in RPMI 1640 medium and one ml of the diluted solution at various concentrations was added to the cells. The inoculated MT-4 test sample was incubated for 60 minutes and infected with HIV at a concentration of moi […]=0.01 and one ml of the cell solution adjusted at a cell density of 3×10^5 cells/ml was added. The cells were cultured for three days : and HIV infected cells were determined with an indirect fluorescence antibody method.
HIV infected cells were determined by the indirect fluorescence antibody method using HIV infected patient serum as a primary antibody. […] HIV infected MT-4 cells cultured without addition of the sample was used as a positive control and cells without addition of viral solution was cultured to make a negative control group.

For assay [4], the system named is mouse cytomegalo virus (mouse CMV). In words: In vivo inhibitory activity against mouse CMV infection (survival of mice). Conditions: after 10 days. As to the method:
(Method) Male Balbc/AJcl mice, 4-week-old (10 in one group) were used. The sample was dissolved in phosphate buffer saline solution (PBS) and intraperitoneally administered to mice.

Bridge positions count the residues as written; N and C are the ends. Peptide text beside a SMILES is read from it.

For the compound `CC[C@H](C)[C@@H]1NC(=O)[C@H](CO)NC(=O)[C@@H]2CCCN2C(=O)[C@H](C)NC(=O)CNC(=O)[C@H](CC(C)C)NC(=O)[C@H](CCCCN)NC(=O)[C@H](CCCCN)NC(=O)[C@H](CCSC)NC(=O)[C@H](CCCNC(=N)N)NC(=O)[C@H](Cc2c[nH]c3ccccc23)NC(=O)[C@H](CCC(N)=O)NC(=O)[C@H](Cc2c[nH]c3ccccc23)NC(=O)[C@H](CCCNC(=N)N)NC(=O)[C@H](CCCNC(=N)N)NC(=O)[C@@H](NC(C)=O)CSSC[C@@H](C(N)=O)NC(=O)[C@H]([C@@H](C)O)NC1=O` [Ac-bovine LF (19-36)-NH2, N-acetyl-bovine LF (19-36)-amide] (Ac-CRRWQWRMKKLGAPSITC-NH2; disulfide 1-18), in assay [1], the “Inhibitory rate of human CMV infection” value is reported as 96.5%. For the same compound, the “Inhibitory rate of infection and proliferation of influenza virus” value (“Inhibitory rate … of influenza virus” below) in assay [2] stood at 87.5%. Also, the “ratio of stained (HIV infected) cells” value in assay [3] (sample 63 μg/ml) came to 17%; in assay [3] (sample 125 μg/ml), 8.8%; in assay [3] (sample 250 μg/ml), 6.1%; in assay [3] (sample 500 μg/ml), 5.0%; in assay [3] (sample 1,000 μg/ml), 3.6%.
On to `CSCC[C@@H]1NC(=O)[C@H](CC(N)=O)NC(=O)[C@H](CCCNC(=N)N)NC(=O)[C@H](CCC(N)=O)NC(=O)[C@H](Cc2c[nH]c3ccccc23)NC(=O)[C@H](CCC(N)=O)NC(=O)[C@H](Cc2ccccc2)NC(=O)[C@@H](NC(C)=O)CSSC[C@@H](C(N)=O)NC(=O)[C@H](CO)NC(=O)[C@H](C(C)C)NC(=O)[C@@H]2CCCN2C(=O)[C@@H]2CCCN2C(=O)CNC(=O)[C@H](CCCNC(=N)N)NC(=O)[C@H](C(C)C)NC(=O)[C@H](CCCCN)NC(=O)[C@H](CCCNC(=N)N)NC1=O` [Ac-human LF (20-37)-NH2, N-acetyl-human LF (20-37)-amide] (Ac-CFQWQRNMRKVRGPPVSC-NH2; disulfide 1-18), for which, in assay [1], the “Inhibitory rate of human CMV infection” value is reported as 96.1%. Also, the “Inhibitory rate … of influenza virus” value in assay [2] turned out to be 93.7%. Besides, the “ratio of stained (HIV infected) cells” value was 18% in assay [3] (sample 63 μg/ml); 9.8% in assay [3] (sample 125 μg/ml); 7.7% in assay [3] (sample 250 μg/ml); 4.5% in assay [3] (sample 500 μg/ml); 3.9% in assay [3] (sample 1,000 μg/ml).
For the compound `CC[C@H](C)[C@@H]1NC(=O)[C@H](CO)NC(=O)[C@@H]2CCCN2C(=O)[C@H](C)NC(=O)CNC(=O)[C@H](CC(C)C)NC(=O)[C@H](CCCCN)NC(=O)[C@H](CCCCN)NC(=O)[C@H](CCSC)NC(=O)[C@H](CCCNC(=N)N)NC(=O)[C@H](Cc2c[nH]c3ccccc23)NC(=O)[C@H](CCC(N)=O)NC(=O)[C@H](Cc2c[nH]c3ccccc23)NC(=O)[C@H](CCCNC(=N)N)NC(=O)[C@H](CCCNC(=N)N)NC(=O)[C@@H](NC(=O)[C@H](CCCCN)NC(=O)[C@@H](N)Cc2ccccc2)CSSC[C@@H](C(=O)N[C@H](C(=O)N[C@@H](CCCNC(=N)N)C(=O)N[C@@H](CCCNC(=N)N)C(=O)N[C@@H](C)C(=O)N[C@@H](Cc2ccccc2)C(=O)O)C(C)C)NC(=O)[C@H]([C@@H](C)O)NC1=O` [Bovine LF (17-41)], the “Inhibitory rate of human CMV infection” value in assay [1] stood at 95.7%. Also, the “Inhibitory rate … of influenza virus” value in assay [2] was found to be 93.7%. Moreover, the “ratio of stained (HIV infected) cells” value in assay [3] (sample 63 μg/ml) was 17%; in assay [3] (sample 125 μg/ml), 7.9%; in assay [3] (sample 250 μg/ml), 5.9%; in assay [3] (sample 500 μg/ml) it was 2.7%; in assay [3] (sample 1,000 μg/ml), 1.0%. In addition, the Survival rate in assay [4] (0.02 g/kg of body weight i.p. 24 hrs. before mouse CMV) turned out to be 30%; in assay [4] (0.05 g/kg of body weight i.p. 24 hrs. before mouse CMV), 60%; in assay [4] (0.10 g/kg of body weight i.p. 24 hrs. before mouse CMV) it was 100%; in assay [4] (0.50 g/kg of body weight i.p. 24 hrs. before mouse CMV), 100%.
`CC[C@H](C)[C@H](NC(=O)[C@H](CO)NC(=O)[C@@H]1CCCN1C(=O)[C@H](C)NC(=O)CNC(=O)[C@H](CC(C)C)NC(=O)[C@H](CCCCN)NC(=O)[C@H](CCCCN)NC(=O)[C@H](CCSC)NC(=O)[C@H](CCCNC(=N)N)NC(=O)[C@H](Cc1c[nH]c2ccccc12)NC(=O)[C@H](CCC(N)=O)NC(=O)[C@H](Cc1c[nH]c2ccccc12)NC(=O)[C@H](CCCNC(=N)N)NC(=O)[C@H](CCCNC(=N)N)NC(=O)[C@H](CS)NC(=O)[C@H](CCCCN)NC(=O)[C@@H](N)Cc1ccccc1)C(=O)N[C@H](C(=O)N[C@@H](CS)C(=O)N[C@H](C(=O)N[C@@H](CCCNC(=N)N)C(=O)N[C@@H](CCCNC(=N)N)C(=O)N[C@@H](C)C(=O)N[C@@H](Cc1ccccc1)C(=O)O)C(C)C)[C@@H](C)O` [[19 CysSH, 36 CysSH] Bovine LF (17-41)]: the “Inhibitory rate of human CMV infection” value in assay [1] was determined as 100.0%. The “Inhibitory rate … of influenza virus” value in assay [2] stood at 92.0%. For the same compound, the “ratio of stained (HIV infected) cells” value in assay [3] (sample 63 μg/ml) was 19%; in assay [3] (sample 125 μg/ml) it was 8.3%; in assay [3] (sample 250 μg/ml), 6.4%; in assay [3] (sample 500 μg/ml) it was 2.9%; in assay [3] (sample 1,000 μg/ml) it was 1.2%.
Consider `CC[C@H](C)[C@H](NC(=O)[C@H](CS)NC(=O)[C@H](CO)NC(=O)[C@@H](NC(=O)[C@@H]1CCCN1C(=O)[C@@H]1CCCN1C(=O)CNC(=O)[C@H](CCCNC(=N)N)NC(=O)[C@@H](NC(=O)[C@H](CCCCN)NC(=O)[C@H](CCCNC(=N)N)NC(=O)[C@H](CCSC)NC(=O)[C@H](CC(N)=O)NC(=O)[C@H](CCCNC(=N)N)NC(=O)[C@H](CCC(N)=O)NC(=O)[C@H](Cc1c[nH]c2ccccc12)NC(=O)[C@H](CCC(N)=O)NC(=O)[C@H](Cc1ccccc1)NC(=O)[C@H](CS)NC(=O)[C@H](CCCCN)NC(=O)[C@@H](N)[C@@H](C)O)C(C)C)C(C)C)C(=O)N[C@@H](CCCCN)C(=O)N[C@@H](CCCNC(=N)N)C(=O)N[C@@H](CC(=O)O)C(=O)N[C@@H](CO)C(=O)O` [[20CysSH, 37CysSH] Human LF (18-42)] (H-TKCFQWQRNMRKVRGPPVSCIKRDS-OH), for which, in assay [1], the “Inhibitory rate of human CMV infection” value came out at 100.0%. Further, the “Inhibitory rate … of influenza virus” value in assay [2] was determined as 96.0%. Besides, the “ratio of stained (HIV infected) cells” value is reported as 17% in assay [3] (sample 63 μg/ml); 8.5% in assay [3] (sample 125 μg/ml); 6.2% in assay [3] (sample 250 μg/ml); 3.1% in assay [3] (sample 500 μg/ml); 1.4% in assay [3] (sample 1,000 μg/ml).
As for “Bovine LF: bovine lactoferrin, an iron-binding protein secreted in milk (CRRWQWRMKKLGAPSITC)”, in assay [1], the “Inhibitory rate of human CMV infection” value came to 95.7%. Further, the “Inhibitory rate … of influenza virus” value in assay [2] is given as 87.5%. In addition, the “ratio of stained (HIV infected) cells” value in assay [3] (sample 63 μg/ml) came to 18%; in assay [3] (sample 125 μg/ml), 8.0%; in assay [3] (sample 250 μg/ml), 6.2%; in assay [3] (sample 500 μg/ml), 4.8%; in assay [3] (sample 1,000 μg/ml), 3.6%.

The record behind these values is patent US5565425A, “Viral infection and proliferation inhibitors” (Snow Brand Milk Products Co., Ltd, priority 1993, dated 1996).
